Values after ≈ are worked out from the molar mass of the structure shown.
What was measured:
[1] = DPPH radical scavenging (antioxidant) assay; type: biochemical; settings: for IC50: DPPH, reference standards and yerba mate extracts by solvent (Table 10)
Experimental: The free radical scavenging activity of all the extracts was evaluated by 1,1-diphenyl-2-picryl-hydrazyl (DPPH) according to a previously reported method (Shen et al., 2010).
Thirty mg of dried extract of each sample was diluted in 10 ml of methanol, obtaining a concentration of 3 mg/mL as stock solution. From this stock solution were obtained the concentrations of 1.5, 0.75; 0.375; 0.1875; 0.09375; 0.046875; 0.0234275; and 0.01171825 mg/mL. Ascorbic acid, rutin, chlorogenic acid as pure reference standards were used as a positive control and dissolved in methanol to make the stock solution with the same concentration of extract solution.
DPPH (7.89 mg) was weighed on a chemical balance with a minimum weighing limit of 10 μg or smaller. Thereafter, it was dissolved in HPLC grade methanol to obtain a constant volume by filling 100 ml of a measuring flask (0.2 mM DPPH). Then further dilute this solution to 0.1 mM. The absorbance of a DPPH solution is empirically known to decrease with time until approximately 1 hr after preparation. Therefore, it was kept in dark for 2 hr until the absorbance stabilized.
The DPPH solution was stored in the dark at room temperature during the assay, and used up on the day of the preparation. 0.3 mL of each sample concentration and positive control was added to 2.7 mL of 0.1 mM DPPH solution. Reaction occurred inside tubes covered with aluminum paper, in a dark environment at 25° C. The mixtures were shaken vigorously and allowed to stand at room temperature for 30 minutes. Then the absorbance was measured at 517 nm using a microplate reader (Varioskan LUX, ThermoFisher). Control sample was prepared containing the same volume without any extract and reference ascorbic acid; methanol was used as blank and % scavenging of the DPPH free radical was measured using the following equation:
DPPH scavenging effect (% inhibition)={(Ac−As)/Ac)*100}
Where, Ac=absorbance of DPPH alone, As=absorbance of DPPH along with different concentrations of extracts.
The measurements were done at eight points of concentration. The measurement for and analytical sample solution at each concentration was repeated three times.
The IC50 of each analytical sample was calculated according to the following procedure: Inhibition ratio were plotted against the sample concentrations at all six points and the respective regression line (y=ax+b) was drawn. The regression line was not required to pass through the origin. In this step, we verified that all of the measurement points were on the regression line. […] When Y in the regression equation was substituted with 50, X (sample concentration) was calculated.
This value was obtained from the results of calculations using linear regression analysis. […]

[2] = adults; cited from earlier work
[3] = in choline chloride and glycerol; cited from earlier work

SMILES	IC50 [1] [µg/mL]	further results
O=C(/C=C/c1ccc(O)c(O)c1)O[C@H]1[C@H](O)C[C@](O)(C(=O)O)C[C@H]1OC(=O)/C=C/c1ccc(O)c(O)c1 [4,5-diCQA, 4,5-dicaffeoylquinic acid]	199.68 (≈ 387 µM)	–
C[N+](C)(C)CCO [choline]	–	daily upper limit, highest level of intake unlikely to cause harm [2]: 3,500 mg/day
Cn1cnc2c1c(=O)[nH]c(=O)n2C [theobromine, 3,7-dimethylxanthine]	–	solubility relative to water [3]: ~32 times
O=C(/C=C/c1ccc(O)c(O)c1)O[C@@H]1CC(O)(C(=O)O)C[C@@H](OC(=O)/C=C/c2ccc(O)c(O)c2)C1O (stereo partly drawn) [3,5-diCQA, 3,5-dicaffeoylquinic acid]	185.68 (≈ 360 µM)	–
Cn1c(=O)c2c(ncn2C)n(C)c1=O [caffeine, 1,3,7-trimethylxanthine]	–	contribution to the extract's antioxidant property ([1]; correlation of DPPH IC50 with total CQAs, with or without caffeine): no contribution
O=C1O[C@H]([C@@H](O)CO)C(O)=C1O [ascorbic acid]	446.70 (≈ 2540 µM)	–
